Entries after “also recorded” stand apart in the source; their conditions may differ.
Legend:
[1] = test system: K562(S) cells; test: K562(S) cell agglutination test; format: cell-based, human; details: for (Δ) O.D. (protecting activity): incubated together with p31-43; for protecting activity towards p31-43 induced agglutination of K562 cells: with p31-43
Method: K562(S) cells, an immature subclone of a cell line from a blastic phase chronic myelogenous leukemia patient, are cultured under 5% CO2 atmosphere at 37° C. in RPMI (Gibco, supplied by Invitrogen, Carlsbad, Calif., USA) containing 4.5 g/L glucose, 2 mM L-glutamine, 50 U/ml penicillin, […] streptomycin, 1% essential amino acids, 1% HEPES and 10% bovine fetal serum (FBS).
K562(S) cells to be used for agglutination test have been collected by centrifugation and washed two times with calcium and magnesium free PBS. Then cells have been resuspended at concentration of 10^8 cells/ml in PBS; […] of cell suspension added to each well of a 96 well plate. The peptide has been added at a concentration of 10 μg/ml. The final total volume has been 100 μl. Cell suspension has been incubated at room temp. for 30 minutes. Agglutination rate has been measured using a 96 well plate reader equipped with stirrer. Turbidity of cellular suspension has been measured at 600 nm (OD600 nm) under continuous stirring at 0 and 30 min times. The difference of T0 and T30 readings has been taken as agglutination rate (CV).

[2] = test system: ICAM-1 in T84 cells; test: Western blotting for expression of ICAM-1 in T84 cells; format: cell-based, human; details: 24 hours; for ICAM-1 level in T84 cells: peptide alone, 20 μg/ml, compared to medium only; for ICAM-1 level in T84 cells exposed to p31-43: peptide together with p31-43, 20 μg/ml each
Method: T84 human colonic carcinoma cells have been cultured under 5% CO2 atmosphere at 37° C. in 50% DMEM, (Gibco, supplied by Invitrogen, Carlsbad, Calif., USA) and 50% […] containing 4.5 g/L glucose, 2 mM L-glutamine, 50 U/ml penicillin, […] streptomycin, 1% essential amino acids, 1% HEPES and 10% bovine fetal serum (FBS).
T84 cells have been treated with p31-43 peptide in absence and presence of pRPQ, pDAV, p7mer (at peptide concentration of 20 μg/ml) and culture medium only (like negative control) for 24 hours at 37° C.
For WB analysis, T84 cells have been seeded at a concentration of 1×10^5 cells/ml in 12 well plate and shortly treated before confluence was reached. Treatment has been carried out using 20 μg/ml of medium for each peptide (p31-43, p7mer, pDAV, pRPQ) for 24 hours. In order the protecting activity of pDAV and pRPQ towards toxic effect of p31-43 to be tested, a pre-incubation for 3 hours using these peptides before the exposure to p31-43, has been performed. After incubation, cells have been treated with buffer containing 150 mM NaCl, 0.05% sodium dodecyl sulfate (SDS) and 1% Triton X-100. This mixture then has been centrifuged for 5 minutes at 4° C. Protein concentration has been measured according to […]. SDS-(Polyacryl amide Gel Electrophoresis) has been carried out using 4% and 7.5% gel. […] of protein have been loaded for each gel run. Then the proteins have been transferred on nitrocellulose membrane (Biorad). Membranes have been incubated overnight with mice anti-ICAM-1 monoclonal Abs (Abcam, Cambridge, UK) at 1:250 dilution. Successively, after washings, said membrane have been incubated with secondary antibody (peroxidase HRP:3000; Biorad). Membrane occurring proteins are detected using chemiluminescent detection kit (Biorad), according to producer instructions. Blot intensity of protein bands has been evaluated by Biorad ChemiDoc densitometer.

[3] = test system: TG2; test: In situ determination of TG2 activity in duodenal mucosa from celiac patients; format: cell-based, human; details: co-incubation with p31-43, biopsies from celiac subjects
Method: (§1) Duodenal mucosa samples have been treated in vitro for 3 and 24 hours using medium, gliadin PT digest (500 μg/mL), p31-43 (20 μg/ml), pRPQ (10 μg/ml). P7mer and pTPO (10 μg/ml) have been used in all the experiments as control peptides.
7 μm diameter sections have been collected on slide, pre-incubated with buffer (965 ml of 100 mmol/L Tris-HCl, pH 7.4, […] of 200 mmol/L CaCl2) for 15 minutes, and then pre-incubated with same buffer added with 10 ml of 10 mmol/L of biotinylated mono-dansylcadaverine (bio-MDC) (Molecular Probes, Leiden, The Netherlands) for 1 hour at room temp. The reaction is stopped using 25 mmol/L of EDTA for 5 minutes, then sections have been fixed in 4% paraformaldeide for 10 minutes. Labelled substrate incorporation has been visualized by incubation with streptavidin-conjugated RPE (1:50; Dako) for 30 minutes. Sections have been visualized fluorescently using Axioxop Zeiss 2 Plus micropurpose (Zeiss, Jena, Germany).

[4] = test system: intestinal biopsies from celiac patients; test: Organ culture of celiac duodenal mucosa with gliadin PT digest, immunolocalization of immune activation labels (CD25+, ICAM1, HLA-DR); format: cell-based, human
Method: as §1
(§2) 4 μm thick sections of frozen biopsy samples from celiac patients have been fixed in acetone for 10 minutes. Then sections have been incubated for 2 hours at room temp. with following antibodies: anti-phospho-tyrosine PY99 mAb (1:80, IgG2b; Saint Cruz Biotechnology, Saint Cruz, Calif.), phospho-p42/p44 (1:500, polyclonal Ig; Cell Technology Beverly, USA), ICAM1 (1:500, Abcam, Cambridge, BUT, USA), HLA-DR (1:500, Abcam, Cambridge, BUT, USA). Antigene expression and distribution thereof within biopsy sample have been visualized by indirect immunofluorescence as previously described. Monoclonal isotype control (IgG1 and IgG2) has been used as control. Samples have been analyzed using Zeiss LSM510 confocal laser scanning unit (Carl Zeiss, Germany).

[5] = test system: biopsies from celiac subjects; test: Organ culture of celiac duodenal mucosa with p31-43, immunolocalization of Py99 and phospho-p42/p44; format: cell-based, human
Method: as §1, §2

[6] = test system: K562(S) cells; details: earlier studies (6-9); cited from earlier work
[7] = 10 μg/ml, difference of O.D at 600 nm at 0 and 30 minutes ×100, K562(S) cells
[8] = 500 μg/ml gliadin PT digest, 10 μg/ml peptide
[9] = p31-43 20 μg/ml, peptide 10 μg/ml

| Substance | (Δ) O.D. (protecting activity) [1, 7] | protecting activity towards p31-43 induced agglutination of K562 cells [1] | ICAM-1 level in T84 cells [2] | ICAM-1 level in T84 cells exposed to p31-43 [2] | further results |
| --- | --- | --- | --- | --- | --- |
| QQPQGGGQPF (SEQ ID NO: 13) (peptide corresponding to SEQ ID NO4 sequence wherein X is three G) [pGGG] | −7.9 ± 1.4 | displayed a protecting activity | – | – | – |
| QQPQRPQQPF (SEQ ID NO: 2) (peptide corresponding ro omega-secalin from aa 218 to aa 227 codified by the sequence deposited at NCBI with accession number FJ823438) [pRPQ] | −9.8 ± 1.7 | prevent p31-43 induced agglutination | No meaningful increase | ICAM-1 levels similar to cells exposed only to culture medium | p31-43-induced TG2 activity [3]: completely inhibited; p31-43-induced TG2 activity ([3]; listed as RPQ peptide): meaningfully prevents; gliadin induced increase of HLA-DR expression in mucosa [4, 8]: meaningfully prevents; also recorded: suitable to control; gliadin induced increase of ICAM1 expression in mucosa [4, 8]: meaningfully prevents; also recorded: suitable to control; gliadin induced increase of T CD25+ cells within lamina propria [4, 8]: suitable to control; mucosa immunity stimulating activity ([4]; peptide alone, duodenal biopsies from both celiac and healthy control subjects, data not shown): lacking in mucosa immunity stimulating activity; expression increase of Py99 [5, 9]: meaningfully prevents; p42/44 phosphorylation induced by p31-43 [5, 9]: meaningfully prevents; also recorded: prevents the increase |
| QQPQWQPF (SEQ ID NO: 15) (peptide corresponding to SEQ ID NO4 sequence wherein X is W) [pW] | −9.1 ± 2.3 | – | – | – | – |
| QQPQDAVQPF (SEQ ID NO: 1) (mutated omega-secalin peptide) [pDAV, decapeptide identified earlier in wheat peptic-triptic digest (WO9727217)] | −12 ± 1.9 | prevent p31-43 induced agglutination | No meaningful increase | ICAM-1 levels similar to cells exposed only to culture medium | prevention of agglutination of K562(S) cells by gliadin peptides [6]: suitable to prevent the agglutination of K562(S) cells by gliadin peptides |
| LDPLIRGILLARPAKL QV (SEQ ID NO: 16) (LDPLIRGILLARPAKLQV; control irrilevant peptide) [TPO control peptide, control irrelevant peptide, reference compound] | – | – | – | – | protecting effect against the activation induced by gliadin ([4]; duodenal biopsies): lacking of any protecting effect; protecting effect against the activation induced by p31-43 ([5]; duodenal biopsies): lacking of any protecting effect |
| QQPQQPF (SEQ ID NO: 3) (toxic gliadin peptide from aa 139 to aa 145 of omega-gliadin sequence having accession number AAT74547) [p7mer, 7mer peptide shared by pDAV and pRPQ, known to be toxic in CD, reference compound] | 1.5 ± 1.1 | does not display any protecting effect | increases ICAM-1 intracellular levels | does not exert any anti-inflammatory effect | ICAM-1 level in T84 cells ([2]; listed as 7mer): poor increase; ICAM-1 level in T84 cells exposed to p31-43 ([2]; listed as 7mer): no meaningful decrease; agglutinant activity towards K562 cells ([1]; peptide alone): displays also agglutinant activity; (Δ) O.D. (agglutinating activity) ([1]; peptide alone, 10 μg/ml, difference of O.D at 600 nm at 0 and 30 minutes ×100, K562(S) cells): 1.0 ± 0.3 |
| QQPQYYYQPF (SEQ ID NO: 14) (peptide corresponding to SEQ ID No4 sequence wherein X is three Y) [pYYY] | −7 ± 2.5 | little higher protecting activity than pGGG | – | – | – |

Reference: patent publication US20140227238A1, “PEPTIDES HAVING PROTECTIVE EFFECT TOWARDS THE INFLAMMATORY ACTIVITY OF PEPTIDE 31-43 OF A-GLIADIN IN CELIAC DISEASE” (CRA-CONSIGLIO PER LA RICERCA E LA, priority 2011, published 2014)
